According to patent US11174223B2, “Compositions, methods, and systems for the synthesis and use of imaging agents” (Lantheus Medical Imaging, Inc., priority 2010, dated 2021):

Experiments:
[1] = Tissue biodistribution by tissue sampling in rabbits; format: in vivo
Procedure: Imaging agent-1 was designed as a substrate for the norepinephrine transporter (NET) to image the cardiac sympathetic nervous system. […] These values were similar to that of MIBG (2.12±0.26 μM and 4.76±0.78 pmol/min/million cells). In animals, tissue biodistribution of imaging agent-1 was assessed by tissue sampling at 15- and 60-minute following administration. Heart uptake was 2.36±0.16 and 2.17±0.12% injected dose per g tissue (% ID/g) in rats and 0.25±0.03 and 0.28±0.03% ID/g in rabbits. In rabbits, desipramine (1 mg/kg) inhibited heart uptake of imaging agent-1 by 68% and ^123I-MIBG uptake by 55% at 1 hour post dose.

NET [2] = target: T1, NET (Homo sapiens, UniProt P23975); test: Competition binding assay in cell membranes over-expressing human NET; parameters: expressed in transfected cells
Procedure: Imaging agent-1 was designed as a substrate for the norepinephrine transporter (NET) to image the cardiac sympathetic nervous system. […] In animals, tissue biodistribution of imaging agent-1 was assessed by tissue sampling at 15- and 60-minute following administration.
The affinity (Ki) was determined in a competition binding assay by incubating ^19F-imaging agent-1, a cold analog of imaging agent-1, or NE with ^3H-desmethylimipramine in cell membrane overexpressing human NET. […] In SK—NSH cells, the uptake kinetics (Km and Vmax) were evaluated by measuring NET mediated uptake of imaging agent-1 or NE at various concentrations. Imaging agent-1 cardiac image quality was evaluated by PET imaging (˜1.5 mCi, i.v.) in rabbits in the presence and absence of desipramine (1 mg/kg).

[3] = test system: norepinephrine transporter (NET), uptake 1; test: Heart uptake in rats after uptake 1 blockade (desipramine) or 6-hydroxydopamine sympathetic denervation; format: in vivo; conditions: 60 minutes post injection
Procedure: Desipramine, a selective uptake 1 inhibitor, was used to block cardiac uptake 1 in rats (10 mg/kg, ip), rabbits (1 mg/kg iv), and NHPs (0.5 mg/kg, iv). 6-hydroxydopamine, a neurotoxin, was injected to induce sympathetic denervation in rats (100 mg/kg ip for 7 days) and rabbits (25 mg/kg iv on day 1, 2, 7, and 8). Imaging agent-1 heart uptake in comparison with MIBG was assessed by tissue sampling at 60 minutes post imaging agent injection. Imaging was also performed with (2-tert-butyl-4-chloro-5-[4-(2-[^18F]fluoroethoxymethyl)-benzyloxy]-2H-pyridazin-3-1.

[4] = Cardiac PET imaging in rabbit model of regional cardiac sympathetic denervation (RCSD) and re-innervation; format: in vivo, rabbits
Procedure: Rabbit models of RCSD were developed by applying phenol directly on the surface of the left ventricular wall during a sternotomy. Two and twelve weeks following the procedure, imaging agent-1 cardiac PET imaging (˜1.5 mCi, iv) were performed in these rabbits. The myocardial area with radioactivity ≥50% maximum was quantified as innervated region for comparison. To evaluate susceptibility of arrhythmia in rabbits, dofetilide (10 and 40 μg/kg iv, a delayed IKr inhibitor) induced changes were assessed by measuring ECG including heart rate (HR), QTc interval (corrected by Fridericia method), and frequency of arrhythmia.

[5] = Dosimetry in non-human primates to estimate human radiation dosimetry; format: in vivo, cynomolgus monkeys
Procedure: Dosimetry in non-human primates of imaging agent-1 was examined. Imaging agent-1, which is labeled with ^18F, is a novel norepinephrine transporter (NET) ligand and was a useful radiotracer for mapping the cardiac nerve terminal in vivo using positron emission tomography. A study was performed in four non-human primates to estimate human radiation dosimetry.
In this study two male and two female cynomolgus monkeys were imaged using a Concord Focus 220 MicroPET scanner for whole body ^18F distribution following 4 to 5 mCi (0.65 to 1.6 μg) single intravenous injection of imaging agent-1. Under isoflurane anesthesia, images of the animals from head to lower abdomen were acquired in 5 segments over four and half hours following injection. Radioactivity in identifiable organs and the remainder of the body was determined as a function of time using region-of-interest analysis. The total number of disintegrations per unit injected dose was determined by normalizing by the injected radioactivity and integrating over time the data for radioactivity versus time. Using the OLINDA/EXM software (Organ Level Internal Dose Assessment/EXponential Modeling Software, published by Vanderbilt University), the normalized number of ^18F disintegrations for each organ was combined with the energy released by each disintegration, and using the MIRD schema, estimates were made of the fraction of the total released energy that was retained in each source organ and the contribution from each source organ to the energy deposited in surrounding target organs for an adult human. Dividing the total fractional energy deposited in each organ by the corresponding organ mass yielded the radiation dose for that organ per unit (mCi or MBq) injected dose.

NET [6] = target: T1, NET; test: Cell uptake selectivity with and without desipramine in SK-N-SH cells; format: cell-based; parameters: endogenous in cells; host or cells: SK-N-SH
Procedure: The affinity (Ki) was determined in a competition binding assay by incubating ^19F-imaging agent-1, a cold analog of imaging agent-1, or NE with ^3H-desmethylimipramine in cell membrane overexpressing human NET. The uptake selectivity was assessed by measuring imaging agent-1 or ^3H-NE cell uptake with and without pretreatment of desipramine, a selective NET inhibitor, in SK—N—SH (human neuroblastoma) and PC-12 (rat pheochromocytoma) cells. In SK—NSH cells, the uptake kinetics (Km and Vmax) were evaluated by measuring NET mediated uptake of imaging agent-1 or NE at various concentrations. Imaging agent-1 cardiac image quality was evaluated by PET imaging (˜1.5 mCi, i.v.) in rabbits in the presence and absence of desipramine (1 mg/kg).

[7] = estimated from cynomolgus monkey PET

T1 sequence (P23975 whole entry): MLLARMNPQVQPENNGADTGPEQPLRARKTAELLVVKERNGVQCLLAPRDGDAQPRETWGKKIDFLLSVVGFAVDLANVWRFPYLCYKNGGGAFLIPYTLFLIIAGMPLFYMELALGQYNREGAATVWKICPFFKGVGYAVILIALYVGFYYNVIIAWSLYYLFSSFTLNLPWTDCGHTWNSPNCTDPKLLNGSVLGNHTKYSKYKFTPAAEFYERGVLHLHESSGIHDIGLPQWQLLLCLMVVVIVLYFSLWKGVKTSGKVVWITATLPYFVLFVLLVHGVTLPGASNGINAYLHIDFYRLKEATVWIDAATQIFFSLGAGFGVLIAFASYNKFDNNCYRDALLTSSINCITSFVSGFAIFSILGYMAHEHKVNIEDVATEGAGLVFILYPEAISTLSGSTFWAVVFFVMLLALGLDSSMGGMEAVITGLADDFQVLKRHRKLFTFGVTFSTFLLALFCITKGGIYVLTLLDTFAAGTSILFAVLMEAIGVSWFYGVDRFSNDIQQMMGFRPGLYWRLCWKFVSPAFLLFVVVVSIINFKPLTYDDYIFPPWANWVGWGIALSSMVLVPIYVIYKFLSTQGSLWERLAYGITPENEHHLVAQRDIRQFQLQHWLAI

SMILES: N=C(N)NCc1ccc(OCCC[18F])c(Br)c1 [imaging agent-1, 1-{3-Bromo-4-[3-[^18F]fluoropropoxy]benzyl}guanidine]
- Heart uptake ([1]; 15-minute following administration): 0.25±0.03 % ID/g
- Heart uptake ([1]; 60-minute following administration): 0.28±0.03 % ID/g
- Ki (NET [2]; Example 25, cell membranes over-expressing the human NET): 5.16 ± 0.93 µM
- Ki (NET [2]; Example 27, ^19F cold analog or NE vs ^3H-desmethylimipramine, membrane overexpressing human NET): 5.2 ± 1.1 µM
- tissue uptake at 60 min ([3]; rat, heart, other: injection, rats, control group of denervation): 2.58 ± 0.76 %ID/g
- Heart uptake ([3]; rats, control of uptake 1 blockade): 1.47±0.22 % ID/g
- Heart uptake ([3]; rats, uptake 1 blocked (desipramine 10 mg/kg ip)): 1.41±0.07 % ID/g
- Heart uptake ([3]; sympathetic denervated rats (6-hydroxydopamine)): 2.18±0.39 % ID/g
- Innervated region (myocardial area with radioactivity ≥50% maximum) ([4]; phenol RCSD rabbits, 2 weeks post surgery): 12245±905 voxels
- Innervated region (myocardial area with radioactivity ≥50% maximum) ([4]; phenol RCSD rabbits, 12 weeks): 16812±503 voxels
- Innervated region (myocardial area with radioactivity ≥50% maximum) ([4]; sham-denervated rabbits): 20702±2190 voxels
- Maximum administered dose that does not exceed 10 mSv effective dose ([5]; based on average values): 14 mCi
- Maximum dose that may be administered to a human without exceeding 50 mSv (5 rem) to the urinary bladder ([5]; based on average values): 12 mCi
- Mean effective dose as defined in ICRP 60 [5, 7]: 0.070±0.0059 rem/mCi
- Mean whole body dose estimate [5, 7]: 0.044±0.00031 rem/mCi
- Predicted human radiation dose estimate, adrenals [5, 7]: 0.14±0.027 rem/mCi
- Predicted human radiation dose estimate, heart wall [5, 7]: 0.085±0.014 rem/mCi
- Predicted human radiation dose estimate, kidneys [5, 7]: 0.15±0.088 rem/mCi
- Predicted human radiation dose estimate, osteogenic cells [5, 7]: 0.084±0.0048 rem/mCi
- Predicted human radiation dose estimate, red bone marrow [5, 7]: 0.083±0.0099 rem/mCi
- Predicted human radiation dose estimate, urinary bladder wall ([5]; estimated from cynomolgus monkey PET, OLINDA/EXM): 0.41±0.089 rem/mCi
- Inhibition of cell uptake by blockade of NET (desipramine) (NET [6]): 91±1%
